Data: PMC11233931, “Remodeling tumor‐associated macrophage for anti‐cancer effects by rational design of irreversible inhibition of mitogen‐activated protein kinase‐activated protein kinase 2” (MedComm, 2024)

Columns and labels:
Experiment in all cases: Eurofins kinase selectivity profile against 380 other human recombinant kinases (Table S2)
Assay type in all cases: biochemical
[1] = biological target: T1, 380 human recombinant protein kinases (Homo sapiens, UniProt Q9H1R3); details: MYLK2(h), read-out: Inhibition rate
T1 construct: purchased Eurofins (Celle Lévescault)
In short: (§1)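 To gauge specificity for MK2, the compound is profiled externally at various concentrations on recombinant human kinases, 380 in total.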

[2] = biological target: T2, 380 human recombinant protein kinases (Homo sapiens, UniProt P05129); details: PKCγ(h), read-out: Inhibition rate
T2 construct: purchased Eurofins (Celle Lévescault)
In short: as §1

[3] = biological target: T3, 380 human recombinant protein kinases (Homo sapiens, UniProt Q96L34); details: MARK4(h), read-out: Inhibition rate
T3 construct: purchased Eurofins (Celle Lévescault)
T3 sequence (Q96L34 1-752): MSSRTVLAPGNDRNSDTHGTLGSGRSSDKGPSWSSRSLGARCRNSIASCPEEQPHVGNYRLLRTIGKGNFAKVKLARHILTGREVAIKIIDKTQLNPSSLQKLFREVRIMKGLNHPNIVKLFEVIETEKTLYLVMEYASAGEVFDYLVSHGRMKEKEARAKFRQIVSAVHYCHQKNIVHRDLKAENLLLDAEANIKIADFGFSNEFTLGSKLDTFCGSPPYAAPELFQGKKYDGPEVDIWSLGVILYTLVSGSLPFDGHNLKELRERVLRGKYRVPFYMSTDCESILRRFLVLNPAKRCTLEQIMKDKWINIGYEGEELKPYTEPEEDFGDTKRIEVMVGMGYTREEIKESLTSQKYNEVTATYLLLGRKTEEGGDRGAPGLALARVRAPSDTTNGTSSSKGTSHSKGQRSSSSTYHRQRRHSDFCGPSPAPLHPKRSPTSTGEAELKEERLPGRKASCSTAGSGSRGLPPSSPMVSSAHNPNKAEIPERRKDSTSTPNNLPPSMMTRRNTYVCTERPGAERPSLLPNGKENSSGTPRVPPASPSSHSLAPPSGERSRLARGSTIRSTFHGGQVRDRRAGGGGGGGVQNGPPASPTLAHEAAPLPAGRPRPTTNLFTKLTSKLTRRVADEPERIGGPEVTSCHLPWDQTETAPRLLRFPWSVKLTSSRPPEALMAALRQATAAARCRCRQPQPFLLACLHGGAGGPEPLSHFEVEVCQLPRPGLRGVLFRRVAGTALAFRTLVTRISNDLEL
In short: as §1

[4] = biological target: T4, 380 human recombinant protein kinases (Homo sapiens, UniProt P48730); details: CK1δ(h), read-out: Inhibition rate
T4 construct: purchased Eurofins (Celle Lévescault)
In short: as §1

[5] = biological target: T5, 380 human recombinant protein kinases (Homo sapiens, UniProt Q8WXR4); details: MYO3B(h), read-out: Inhibition rate
T5 construct: purchased Eurofins (Celle Lévescault)
T5 sequence (Q8WXR4 1-1341): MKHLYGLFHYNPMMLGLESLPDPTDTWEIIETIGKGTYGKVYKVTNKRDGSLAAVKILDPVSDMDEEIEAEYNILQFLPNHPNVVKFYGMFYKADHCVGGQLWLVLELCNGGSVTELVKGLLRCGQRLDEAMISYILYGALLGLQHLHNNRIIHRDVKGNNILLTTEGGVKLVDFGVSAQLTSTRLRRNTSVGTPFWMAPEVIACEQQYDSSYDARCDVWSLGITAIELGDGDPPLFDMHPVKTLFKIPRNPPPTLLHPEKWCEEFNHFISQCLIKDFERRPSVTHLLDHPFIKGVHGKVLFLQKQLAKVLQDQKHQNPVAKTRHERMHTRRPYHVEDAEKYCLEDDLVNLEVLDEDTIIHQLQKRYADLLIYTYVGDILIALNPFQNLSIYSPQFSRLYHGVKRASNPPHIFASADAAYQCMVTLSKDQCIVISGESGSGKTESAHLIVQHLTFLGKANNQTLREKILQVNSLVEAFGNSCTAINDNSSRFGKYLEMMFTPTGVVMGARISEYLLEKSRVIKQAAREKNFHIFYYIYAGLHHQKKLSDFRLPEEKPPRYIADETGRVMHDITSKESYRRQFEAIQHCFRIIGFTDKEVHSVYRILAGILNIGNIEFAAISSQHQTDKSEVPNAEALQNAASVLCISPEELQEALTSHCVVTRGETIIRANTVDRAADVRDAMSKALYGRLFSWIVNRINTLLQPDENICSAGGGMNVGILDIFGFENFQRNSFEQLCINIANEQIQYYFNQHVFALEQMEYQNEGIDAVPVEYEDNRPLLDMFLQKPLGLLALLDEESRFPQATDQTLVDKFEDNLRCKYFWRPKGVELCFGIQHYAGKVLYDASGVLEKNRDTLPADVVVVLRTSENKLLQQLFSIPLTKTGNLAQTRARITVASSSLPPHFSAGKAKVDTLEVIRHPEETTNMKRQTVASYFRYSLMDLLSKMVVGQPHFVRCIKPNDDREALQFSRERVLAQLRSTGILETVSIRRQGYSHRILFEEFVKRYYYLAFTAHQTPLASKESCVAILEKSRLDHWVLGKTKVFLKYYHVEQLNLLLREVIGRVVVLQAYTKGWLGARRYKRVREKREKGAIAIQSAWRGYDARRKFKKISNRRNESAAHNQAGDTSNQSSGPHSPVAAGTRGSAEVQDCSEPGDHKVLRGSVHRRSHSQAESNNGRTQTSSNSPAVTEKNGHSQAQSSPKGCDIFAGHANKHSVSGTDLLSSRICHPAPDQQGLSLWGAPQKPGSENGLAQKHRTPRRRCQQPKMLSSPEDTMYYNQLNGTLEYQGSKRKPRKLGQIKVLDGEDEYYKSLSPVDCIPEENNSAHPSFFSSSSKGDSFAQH
In short: as §1

[6] = biological target: T6, 380 human recombinant protein kinases (Homo sapiens, UniProt Q13464); details: ROCK-I(h), read-out: Inhibition rate
T6 construct: purchased Eurofins (Celle Lévescault)
In short: as §1

T4 sequence (P48730 whole entry): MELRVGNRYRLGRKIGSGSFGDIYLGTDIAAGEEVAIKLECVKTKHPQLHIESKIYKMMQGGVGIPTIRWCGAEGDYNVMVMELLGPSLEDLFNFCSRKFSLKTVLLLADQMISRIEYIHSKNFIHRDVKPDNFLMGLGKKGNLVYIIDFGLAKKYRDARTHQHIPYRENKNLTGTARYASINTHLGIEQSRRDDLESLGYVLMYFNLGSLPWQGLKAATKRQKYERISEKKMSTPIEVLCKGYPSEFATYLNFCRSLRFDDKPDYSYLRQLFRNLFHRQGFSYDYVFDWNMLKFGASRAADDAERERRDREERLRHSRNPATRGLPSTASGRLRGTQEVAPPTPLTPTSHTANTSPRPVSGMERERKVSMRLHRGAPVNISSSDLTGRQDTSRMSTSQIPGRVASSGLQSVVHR
T6 sequence (Q13464 whole entry): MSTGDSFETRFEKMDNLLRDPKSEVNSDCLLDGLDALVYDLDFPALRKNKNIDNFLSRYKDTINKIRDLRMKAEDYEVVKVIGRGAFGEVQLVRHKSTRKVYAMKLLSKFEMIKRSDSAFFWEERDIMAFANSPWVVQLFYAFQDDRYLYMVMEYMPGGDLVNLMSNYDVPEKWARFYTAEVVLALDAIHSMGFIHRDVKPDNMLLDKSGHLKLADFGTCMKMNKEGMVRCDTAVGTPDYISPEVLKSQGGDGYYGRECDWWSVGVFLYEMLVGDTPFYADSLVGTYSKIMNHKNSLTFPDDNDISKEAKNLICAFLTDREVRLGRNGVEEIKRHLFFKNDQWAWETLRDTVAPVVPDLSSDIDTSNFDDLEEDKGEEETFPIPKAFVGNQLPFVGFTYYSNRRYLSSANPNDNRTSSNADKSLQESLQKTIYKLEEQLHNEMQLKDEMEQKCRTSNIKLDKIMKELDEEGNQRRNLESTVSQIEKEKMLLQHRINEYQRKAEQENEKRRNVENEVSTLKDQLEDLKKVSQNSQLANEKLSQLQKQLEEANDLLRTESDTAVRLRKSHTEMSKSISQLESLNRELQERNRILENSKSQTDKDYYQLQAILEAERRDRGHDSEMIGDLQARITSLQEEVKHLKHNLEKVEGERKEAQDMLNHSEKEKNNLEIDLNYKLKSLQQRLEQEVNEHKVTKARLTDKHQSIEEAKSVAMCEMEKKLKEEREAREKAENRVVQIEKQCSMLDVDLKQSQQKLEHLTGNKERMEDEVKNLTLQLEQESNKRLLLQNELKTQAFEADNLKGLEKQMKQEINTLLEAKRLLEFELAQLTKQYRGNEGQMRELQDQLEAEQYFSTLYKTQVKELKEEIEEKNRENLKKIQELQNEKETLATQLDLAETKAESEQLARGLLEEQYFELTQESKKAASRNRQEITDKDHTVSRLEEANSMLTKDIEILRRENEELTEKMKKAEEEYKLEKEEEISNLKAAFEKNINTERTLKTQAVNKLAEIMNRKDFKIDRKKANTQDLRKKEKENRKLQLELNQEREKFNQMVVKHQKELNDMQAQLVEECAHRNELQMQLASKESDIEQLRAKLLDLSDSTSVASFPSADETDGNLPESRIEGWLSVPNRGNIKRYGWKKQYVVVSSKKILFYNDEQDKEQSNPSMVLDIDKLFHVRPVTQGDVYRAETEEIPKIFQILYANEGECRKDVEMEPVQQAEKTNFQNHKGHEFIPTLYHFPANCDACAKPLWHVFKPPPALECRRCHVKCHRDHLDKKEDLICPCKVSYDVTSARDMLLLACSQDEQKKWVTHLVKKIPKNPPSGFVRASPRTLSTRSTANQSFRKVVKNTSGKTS
T1 sequence (Q9H1R3 whole entry): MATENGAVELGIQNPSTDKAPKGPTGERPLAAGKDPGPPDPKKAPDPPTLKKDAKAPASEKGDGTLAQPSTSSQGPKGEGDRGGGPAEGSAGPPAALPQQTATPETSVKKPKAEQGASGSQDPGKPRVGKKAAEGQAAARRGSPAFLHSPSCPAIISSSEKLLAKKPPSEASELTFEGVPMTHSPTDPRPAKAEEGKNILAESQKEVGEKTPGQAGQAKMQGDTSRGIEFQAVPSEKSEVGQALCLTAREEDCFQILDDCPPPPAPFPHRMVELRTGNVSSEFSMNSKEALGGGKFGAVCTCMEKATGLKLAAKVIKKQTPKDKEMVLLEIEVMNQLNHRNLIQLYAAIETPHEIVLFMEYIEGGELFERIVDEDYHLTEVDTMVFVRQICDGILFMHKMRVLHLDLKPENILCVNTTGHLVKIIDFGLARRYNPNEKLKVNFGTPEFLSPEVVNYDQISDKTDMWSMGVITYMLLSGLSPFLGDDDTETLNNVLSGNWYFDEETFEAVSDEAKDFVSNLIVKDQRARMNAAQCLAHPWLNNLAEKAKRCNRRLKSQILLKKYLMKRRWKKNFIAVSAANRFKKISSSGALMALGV

SMILES: C=CC(=O)Nc1cc(-c2cc(-c3cc4c([nH]3)CCNC4=O)ccn2)ccc1OC(F)(F)F [compound 11]
- inhibition at 0.01 µM ([1]; 10 nM): -2%
- inhibition at 0.1 µM ([1]; 100 nM): 6%
- inhibition at 1 µM ([1]; 1000 nM): 29%
- inhibition at 0.01 µM ([2]; 10 nM): 7%
- inhibition at 0.1 µM ([2]; 100 nM): 5%
- inhibition at 1 µM ([2]; 1000 nM): 14%
- inhibition at 0.01 µM ([3]; 10 nM): -10%
- inhibition at 0.1 µM ([3]; 100 nM): -2%
- inhibition at 1 µM ([3]; 1000 nM): -4%
- inhibition at 0.01 µM ([4]; 10 nM): 3%
- inhibition at 0.1 µM ([4]; 100 nM): 26%
- inhibition at 1 µM ([4]; 1000 nM): 74%
- inhibition at 0.01 µM ([5]; 10 nM): 3%
- inhibition at 0.1 µM ([5]; 100 nM): 4%
- inhibition at 1 µM ([5]; 1000 nM): 16%
- inhibition at 0.01 µM ([6]; 10 nM): 2%
- inhibition at 0.1 µM ([6]; 100 nM): -1%
- inhibition at 1 µM ([6]; 1000 nM): -7%
